#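 Following 48 hours of exposure in 96-well plates, responses at five concentrations were used to interpolate endpoints linearly. GI50: concentration for 50% inhibition of growth. TGI: total growth inhibition.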
# Legend:
# Assay in all cases: inhibition of tumour cell growth, NCI panel, 48 h
# SNB-19 CNS = test system: SNB-19 CNS
# HOP-62 NSCLC = test system: HOP-62 NSCLC
# MCF7 breast = test system: MCF7 breast
# IGROV1 ovarian = test system: IGROV1 ovarian
# SK-MEL-28 melanoma = test system: SK-MEL-28 melanoma
# MOLT-4 leukemia = test system: MOLT-4 leukemia
# UACC-62 melanoma = test system: UACC-62 melanoma
# EKVX NSCLC = test system: EKVX NSCLC
# A549 NSCLC = test system: A549 NSCLC
# UACC-257 melanoma = test system: UACC-257 melanoma
# OVCAR-3 ovarian = test system: OVCAR-3 ovarian
# UO-31 renal = test system: UO-31 renal
# SK-MEL-5 melanoma = test system: SK-MEL-5 melanoma
# HCT-116 colon = test system: HCT-116 colon
# HT29 colon = test system: HT29 colon
# ACHN renal = test system: ACHN renal
# CCRF-CEM leukemia = test system: CCRF-CEM leukemia
# K-562 leukemia = test system: K-562 leukemia
# SF-268 CNS = test system: SF-268 CNS
# NCI-H23 lung = test system: NCI-H23 lung
# LOX IMVI melanoma = test system: LOX IMVI melanoma
# NCI/ADR-RES ovarian = test system: NCI/ADR-RES ovarian
# PC-3 prostate = test system: PC-3 prostate
# TK-10 renal = test system: TK-10 renal
# SF-295 CNS = test system: SF-295 CNS
# M14 melanoma = test system: M14 melanoma
# OVCAR-8 ovarian = test system: OVCAR-8 ovarian
# RPMI-8226 leukemia = test system: RPMI-8226 leukemia
# KM12 colon = test system: KM12 colon
# 786-0 renal = test system: 786-0 renal
# SF-539 CNS = test system: SF-539 CNS
# NCI-H522 lung = test system: NCI-H522 lung
# OVCAR-5 ovarian = test system: OVCAR-5 ovarian
# HS 578T breast = test system: HS 578T breast
# SW-620 colon = test system: SW-620 colon
# DU-145 prostate = test system: DU-145 prostate
# SN12C renal = test system: SN12C renal
# MDA-N = test system: MDA-N
# T-47D breast = test system: T-47D breast
# MDA-MB-435 = test system: MDA-MB-435
# SK-MEL-2 melanoma = test system: SK-MEL-2 melanoma
# HCT-15 colon = test system: HCT-15 colon
# NCI-H460 lung = test system: NCI-H460 lung
# SR leukemia = test system: SR leukemia
# SK-OV-3 ovarian = test system: SK-OV-3 ovarian
# A498 renal = test system: A498 renal
# HCC-2998 colon = test system: HCC-2998 colon
# OVCAR-4 ovarian = test system: OVCAR-4 ovarian
# MALME-3M melanoma = test system: MALME-3M melanoma
# COLO 205 colon = test system: COLO 205 colon
# BT-549 breast = test system: BT-549 breast
# HOP-92 NSCLC = test system: HOP-92 NSCLC
# NCI-H226 lung = test system: NCI-H226 lung
# RXF 393 renal = test system: RXF 393 renal
# CAKI-1 renal = test system: CAKI-1 renal
# U251 CNS = test system: U251 CNS
# MDA-MB-231 breast = test system: MDA-MB-231 breast
# SNB-75 CNS = test system: SNB-75 CNS
# HL-60(TB) leukemia = test system: HL-60(TB) leukemia
smiles,measurement,setting,value
COc1ccccc1C1c2cc3c(cc2OC(N2CCOCC2)C1C)OCO3 (stereo not given),TGI,SNB-19 CNS,37.8 µM
same,TGI,HOP-62 NSCLC,35.3 µM
same,TGI,MCF7 breast,81.5 µM
same,TGI,IGROV1 ovarian,81.7 µM
same,TGI,SK-MEL-28 melanoma,32.6 µM
same,TGI,MOLT-4 leukemia,48.7 µM
same,TGI,UACC-62 melanoma,35.5 µM
same,TGI,EKVX NSCLC,89.6 µM
same,TGI,A549 NSCLC,47.3 µM
same,TGI,UACC-257 melanoma,36.9 µM
same,TGI,OVCAR-3 ovarian,29.5 µM
same,TGI,UO-31 renal,42.8 µM
same,TGI,SK-MEL-5 melanoma,31.2 µM
same,TGI,HCT-116 colon,26.2 µM
same,TGI,HT29 colon,40.9 µM
same,TGI,ACHN renal,> 100 µM
same,TGI,CCRF-CEM leukemia,34.7 µM
same,TGI,K-562 leukemia,24 µM
same,TGI,SF-268 CNS,40.9 µM
same,TGI,NCI-H23 lung,58.7 µM
same,TGI,LOX IMVI melanoma,35.2 µM
same,TGI,NCI/ADR-RES ovarian,61.6 µM
same,TGI,PC-3 prostate,71.9 µM
same,TGI,TK-10 renal,> 100 µM
same,TGI,SF-295 CNS,35.5 µM
same,TGI,M14 melanoma,38.7 µM
same,TGI,OVCAR-8 ovarian,> 100 µM
same,TGI,RPMI-8226 leukemia,45.7 µM
same,TGI,KM12 colon,39.6 µM
same,TGI,786-0 renal,42.2 µM
same,TGI,SF-539 CNS,32 µM
same,TGI,NCI-H522 lung,30.1 µM
same,TGI,OVCAR-5 ovarian,41.1 µM
same,TGI,HS 578T breast,39 µM
same,TGI,SW-620 colon,50.3 µM
same,TGI,DU-145 prostate,51.4 µM
same,TGI,SN12C renal,38.1 µM
same,TGI,MDA-N,24.8 µM
same,TGI,T-47D breast,78.3 µM
same,TGI,MDA-MB-435,24.9 µM
same,TGI,SK-MEL-2 melanoma,37.3 µM
same,TGI,HCT-15 colon,41.5 µM
same,TGI,NCI-H460 lung,40.7 µM
same,TGI,SR leukemia,52.9 µM
Cc1cnc(CNC(=O)c2c(=O)c3ccc(N4CCCN(C)CC4)nc3n3c2sc2ccccc23)cn1,GI50,SNB-19 CNS,1.52 µM
same,TGI,SNB-19 CNS,10.1 µM
same,GI50,SK-OV-3 ovarian,12.5 µM
same,TGI,SK-OV-3 ovarian,28.9 µM
same,GI50,HOP-62 NSCLC,7.16 µM
same,TGI,HOP-62 NSCLC,25.4 µM
same,GI50,A498 renal,12.2 µM
same,TGI,A498 renal,25.2 µM
same,GI50,MCF7 breast,0.804 µM
same,TGI,MCF7 breast,16.4 µM
same,GI50,IGROV1 ovarian,1.89 µM
same,TGI,IGROV1 ovarian,22.2 µM
same,GI50,SK-MEL-28 melanoma,14.8 µM
same,TGI,SK-MEL-28 melanoma,30.5 µM
same,GI50,MOLT-4 leukemia,0.0839 µM
same,TGI,MOLT-4 leukemia,10.7 µM
same,GI50,HCC-2998 colon,2.72 µM
same,TGI,HCC-2998 colon,21.3 µM
same,GI50,UACC-62 melanoma,7.69 µM
same,TGI,UACC-62 melanoma,28.1 µM
same,GI50,OVCAR-4 ovarian,1.4 µM
same,TGI,OVCAR-4 ovarian,10.3 µM
same,GI50,EKVX NSCLC,9.14 µM
same,TGI,EKVX NSCLC,23.2 µM
same,GI50,A549 NSCLC,0.33 µM
same,TGI,A549 NSCLC,7.23 µM
same,GI50,MALME-3M melanoma,9.24 µM
same,TGI,MALME-3M melanoma,25.8 µM
same,GI50,UACC-257 melanoma,17 µM
same,TGI,UACC-257 melanoma,32.9 µM
same,GI50,OVCAR-3 ovarian,7.2 µM
same,TGI,OVCAR-3 ovarian,22 µM
same,GI50,COLO 205 colon,1.07 µM
same,TGI,COLO 205 colon,22.8 µM
same,GI50,UO-31 renal,3.03 µM
same,TGI,UO-31 renal,21.3 µM
same,GI50,SK-MEL-5 melanoma,8.35 µM
same,TGI,SK-MEL-5 melanoma,22.1 µM
same,GI50,HCT-116 colon,0.806 µM
same,TGI,HCT-116 colon,2.76 µM
same,GI50,HT29 colon,1.43 µM
same,TGI,HT29 colon,19 µM
same,GI50,ACHN renal,0.305 µM
same,TGI,ACHN renal,14.9 µM
same,GI50,CCRF-CEM leukemia,1.96 µM
same,TGI,CCRF-CEM leukemia,19.9 µM
same,GI50,K-562 leukemia,1.82 µM
same,TGI,K-562 leukemia,10.6 µM
same,GI50,BT-549 breast,12.6 µM
same,TGI,BT-549 breast,28.4 µM
same,GI50,SF-268 CNS,1.55 µM
same,TGI,SF-268 CNS,25.6 µM
same,GI50,NCI-H23 lung,0.922 µM
same,TGI,NCI-H23 lung,6.1 µM
same,GI50,LOX IMVI melanoma,0.331 µM
same,TGI,LOX IMVI melanoma,2.05 µM
same,GI50,NCI/ADR-RES ovarian,1.18 µM
same,TGI,NCI/ADR-RES ovarian,30.6 µM
same,GI50,PC-3 prostate,4.04 µM
same,TGI,PC-3 prostate,9.7 µM
same,GI50,HOP-92 NSCLC,16.4 µM
same,TGI,HOP-92 NSCLC,32.2 µM
same,GI50,TK-10 renal,8.94 µM
same,TGI,TK-10 renal,23 µM
same,GI50,SF-295 CNS,1.32 µM
same,TGI,SF-295 CNS,18.6 µM
same,GI50,NCI-H226 lung,7.44 µM
same,TGI,NCI-H226 lung,30.8 µM
same,GI50,M14 melanoma,6.49 µM
same,TGI,M14 melanoma,23 µM
same,GI50,OVCAR-8 ovarian,1.09 µM
same,TGI,OVCAR-8 ovarian,21.2 µM
same,GI50,RPMI-8226 leukemia,1.54 µM
same,TGI,RPMI-8226 leukemia,6.1 µM
same,GI50,KM12 colon,1.5 µM
same,TGI,KM12 colon,10.1 µM
same,GI50,RXF 393 renal,3.39 µM
same,TGI,RXF 393 renal,18.9 µM
same,GI50,786-0 renal,6.17 µM
same,TGI,786-0 renal,22.7 µM
same,GI50,CAKI-1 renal,2.49 µM
same,TGI,CAKI-1 renal,18 µM
same,GI50,SF-539 CNS,3.76 µM
same,TGI,SF-539 CNS,8.51 µM
same,GI50,NCI-H522 lung,5.94 µM
same,TGI,NCI-H522 lung,27.2 µM
same,GI50,OVCAR-5 ovarian,13.2 µM
same,TGI,OVCAR-5 ovarian,28.9 µM
same,GI50,HS 578T breast,16.6 µM
same,TGI,HS 578T breast,47.4 µM
same,GI50,SW-620 colon,0.237 µM
same,TGI,SW-620 colon,3.9 µM
same,GI50,DU-145 prostate,1.03 µM
same,TGI,DU-145 prostate,6.29 µM
same,GI50,U251 CNS,3 µM
same,TGI,U251 CNS,7.37 µM
same,GI50,SN12C renal,1.32 µM
same,TGI,SN12C renal,19.9 µM
same,GI50,MDA-MB-231 breast,2.79 µM
same,TGI,MDA-MB-231 breast,8.36 µM
same,GI50,SNB-75 CNS,9.55 µM
same,TGI,SNB-75 CNS,25.8 µM
same,GI50,T-47D breast,17.3 µM
same,TGI,T-47D breast,45.6 µM
same,GI50,HL-60(TB) leukemia,11.2 µM
same,TGI,HL-60(TB) leukemia,31.3 µM
same,GI50,MDA-MB-435,5.4 µM
same,TGI,MDA-MB-435,21.3 µM
same,GI50,SK-MEL-2 melanoma,12.5 µM
same,TGI,SK-MEL-2 melanoma,27 µM
same,GI50,HCT-15 colon,1.03 µM
same,TGI,HCT-15 colon,7.31 µM
same,GI50,NCI-H460 lung,0.162 µM
same,TGI,NCI-H460 lung,2.14 µM
same,GI50,SR leukemia,0.0311 µM
same,TGI,SR leukemia,> 34.3 µM
